Test results: patent US20110020786A1, “PEPTIDE DENDRIMERS: AFFINITY REAGENTS FOR BINDING NOROVIRUSES” (BAYLOR COLLEGE OF MEDICINE, priority 2007, published 2011)
Ends that are not written are not given here.

Experiments:
immobilized NoVLPs = test: Surface plasmon resonance, dendrimer binding to immobilized NoVLPs (KD determination); set-up: species or system Norovirus; conditions: steady-state model fit of equilibrium average response, 8-240 μM dendrimer, HBS-P, 10 μL/min
Procedure: FIGS. 4A-4B are charts illustrating the concentration dependence of RHFQTHTVPLSL8 (the octovalent dendrimer of SEQ ID NO: 1) binding to immobilized NoVLPs. 1-8 μM; 2-32 μM; 3-64 μM; 4-96 μM; 5-160 μM; 6-240 μM; (FIG. 4A). Samples were prepared in the running buffer (HBS-P) and injected at a flowrate of 10 μL/min. The arrow indicates the end of the injection of the dendrimer (binding phase) which is followed by washing with running buffer (dissociation phase).
Peptide binding to VLPs was detected using a BIAcore 3000 instrument. VLPs were immobilized to a CM5 sensor chip using amine coupling at 5 μL/min in HBS buffer (10 mM HEPES containing 0.15 M NaCl and 0.005% surfactant P20, pH 7.4): the sensor chip surface was activated by a 10 min injection of a solution of 0.05 M NHS (N-hydroxysuccinimide) and 0.2 M EDC (N-ethyl-N′-dimethylaminopropylcarbodiimide) followed by a 5 min injection of VLPs (100 μg/mL) in 10 mM sodium acetate pH 4 and blocking of unreacted activated groups with a 7 min injection of ethanolamine. Final surface densities were typically around 9000 RU.

[1] = system: native genogroup II Norovirus from clinical samples; test: Native NoV capture and detection in clinical samples by ELISA; format: binding; conditions: dendrimer as capture reagent, stool samples GII #1-3, bound virus detected with NS14
Procedure: The capture reagent was RHFQTHTVPLSL8 (the octovalent dendrimer of SEQ ID NO: 1) (middle bars), or AHFQTHTVPLSL8 (the octovalent dendrimer of SEQ ID NO: 2) (right bars) and bound virus was detected with a MAb3912 (GI) or NS14 (GII). […] For comparison, detection of Norovirus from genogroup I samples (GI#1-3) was evaluated using a genogroup I specific antibody as the capture reagent (left bars). The potential of false positive signals was evaluated using clinical samples negative for Norovirus (negative #1-3) with anti-genogroup I antibody, RHFQTHTVPLSL8 (the octovalent dendrimer of SEQ ID NO: 1) and AHFQTHTVPLSL8 (the octovalent dendrimer of SEQ ID NO: 2) as capture reagents.
Capture and detection of native NoV from clinical samples was performed by ELISA. […] Captured NoV was detected with an anti-Norwalk virus antibody from rabbit (for genogroup I Norwalk detection) or NS14 (for genogroup II NoV detection) as the primary antibody followed by goat anti-rabbit-HRP or goat anti-mouse-HRP as the secondary antibody with detection at 405 nm using the HRP substrate ABTS.

In the case of “RHFQTHTVPLSL8 (also: octovalent dendrimer of the peptide)”, the Kd (immobilized NoVLPs) is reported as 117 µM and the “capture of native genogroup II Norovirus from clinical samples” value [1] is reported as “No genogroup II virus could be detected”.
